According to US7964607B2, “Pyrazolo[3,4-d]pyrimidine compounds” (Pfizer Inc., priority 2007, dated 2011):

Target: T1, human recombinant PDE9 enzyme (Homo sapiens, UniProt O76083)
T1 construct: made in house; host or cells: SF-9 insect cells
Test: Phosphodiesterase 9 (PDE9) inhibitory activity, Scintillation Proximity (SPA) assay
Type: biochemical
Settings: human recombinant PDE9 from SF-9 cells; 50 nM [3H]cGMP; room temperature, 30 min; additional compounds Ex. 115-228; read-out: G5678A (U):IC50
Summary of the method: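 Recombinant human PDE9 from SF-9 cell lysate supernatant, diluted so that ≤20% of [3H]cGMP substrate was hydrolysed to 5′GMP. Reaction started with enzyme and run 30 min at room temperature with 2% DMSO final. SPA beads were counted after >300 min; background came from a high concentration of a PDE inhibitor.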

T1 sequence (O76083 whole entry): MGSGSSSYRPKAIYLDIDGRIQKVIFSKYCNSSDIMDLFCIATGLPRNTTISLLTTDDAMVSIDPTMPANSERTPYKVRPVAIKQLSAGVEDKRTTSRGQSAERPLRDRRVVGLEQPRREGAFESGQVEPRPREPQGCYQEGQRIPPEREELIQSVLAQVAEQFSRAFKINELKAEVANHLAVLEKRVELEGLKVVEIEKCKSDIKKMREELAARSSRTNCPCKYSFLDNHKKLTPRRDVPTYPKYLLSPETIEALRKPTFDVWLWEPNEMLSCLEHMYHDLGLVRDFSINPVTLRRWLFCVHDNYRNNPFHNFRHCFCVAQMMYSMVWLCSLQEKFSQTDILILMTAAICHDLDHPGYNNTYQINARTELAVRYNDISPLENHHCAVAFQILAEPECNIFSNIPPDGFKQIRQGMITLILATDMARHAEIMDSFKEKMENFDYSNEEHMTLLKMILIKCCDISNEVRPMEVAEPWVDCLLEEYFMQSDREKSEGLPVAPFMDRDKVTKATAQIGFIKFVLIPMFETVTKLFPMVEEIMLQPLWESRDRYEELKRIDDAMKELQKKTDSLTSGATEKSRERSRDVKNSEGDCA

IC50 [nM]	SMILES
47.7	COc1ncccc1CN1C[C@@H](C)[C@H](c2nc3c(cnn3C3CCCC3)c(=O)[nH]2)C1 (racemic) [Example 138, 1-cyclopentyl-6-{(3,4-trans}-1-[(2-methoxypyridin-3-yl)methyl]-4-methylpyrrolidin-3-yl}-1,5-dihydro-4H-pyrazolo[3,4-d]pyrimidin-4-one]
97.5	CCOc1ccccc1CN1C[C@@H](C)[C@H](c2nc3c(cnn3C3CCCC3)c(=O)[nH]2)C1 (racemic) [Example 139, 1-cyclopentyl-6-[(3,4-trans)-1-(2-ethoxybenzyl)-4-methylpyrrolidin-3-yl]-1,5-dihydro-4H-pyrazolo[3,4-d]pyrimidin-4-one]
47.5	C[C@@H]1CN(Cc2cccc3ccccc23)C[C@H]1c1nc2c(cnn2C2CCCC2)c(=O)[nH]1 (racemic) [Example 142, 1-cyclopentyl-6-[(3,4-trans)-4-methyl-1-(1-naphthylmethyl)pyrrolidin-3-yl]-1,5-dihydro-4H-pyrazolo[3,4-d]pyrimidin-4-one]
79.8	C[C@@H]1CN(Cc2ccc(F)cc2F)C[C@H]1c1nc2c(cnn2C2CCCC2)c(=O)[nH]1 (racemic) [Example 147, 1-cyclopentyl-6-[(3,4-trans)-1-(2,4-difluorobenzyl)-4-methylpyrrolidin-3-yl]-1,5-dihydro-4H-pyrazolo[3,4-d]pyrimidin-4-one]
47.1	C[C@@H]1CN(Cc2cccc3c2OCCO3)C[C@H]1c1nc2c(cnn2C2CCCC2)c(=O)[nH]1 (racemic) [Example 149, 1-cyclopentyl-6-[(3,4-trans)-1-(2,3-dihydro-1,4-benzodioxin-5-ylmethyl)-4-methylpyrrolidin-3-yl]-1,5-dihydro-4H-pyrazolo[3,4-d]pyrimidin-4-one]
93.5	C[C@@H]1CN(Cc2ccc(F)cc2Cl)C[C@H]1c1nc2c(cnn2C2CCCC2)c(=O)[nH]1 (racemic) [Example 150, 6-[(3,4-trans)-1-(2-chloro 4-fluorobenzyl)-4-methylpyrrolidin-3-yl]-1-cyclopentyl-1,5-dihydro-4H-pyrazolo[3,4-] pyrimidin-4-one]
117	Cc1ccc(CN2C[C@@H](C)[C@H](c3nc4c(cnn4C4CCCC4)c(=O)[nH]3)C2)c(C)c1 (racemic) [Example 151, 1-cyclopentyl-6-[(3,4-trans)-1-(2,4-dimethylbenzyl)-4-methylpyrrolidin-3-yl]-1,5-dihydro-4H-pyrazolo[3,4-d]pyrimidin-4-one]
175	C[C@@H]1CN(Cc2ccc(Cl)cc2F)C[C@H]1c1nc2c(cnn2C2CCCC2)c(=O)[nH]1 (racemic) [Example 154, 6-[(3,4-trans)-1-(4-chloro-2-fluorobenzyl)-4-methylpyrrolidin-3-yl]-1-cyclopentyl-1,5-dihydro-4H-pyrazolo[3,4-d]pyrimidin-4-one]
40.8	C[C@@H]1CN(Cc2cc(F)ccc2F)C[C@H]1c1nc2c(cnn2C2CCCC2)c(=O)[nH]1 (racemic) [Example 156, 1-cyclopentyl-6-[(3,4-trans)-1-(2,5-difluorobenzyl)-4-methylpyrrolidin-3-yl]-1,5-dihydro-4H-pyrazolo[3,4-d]pyrimidin-4-one]
56.4	C[C@@H]1CN(Cc2ccccc2C#N)C[C@H]1c1nc2c(cnn2C2CCCC2)c(=O)[nH]1 (racemic) [Example 157, 2-{[(3,4-trans)-3-(1-cyclopentyl-4-oxo-4,5-dihydro-1H-pyrazolo[3,4-d]pyrimidin-6-yl)-4-methylpyrrolidin-1-yl]methyl}benzonitrile]

The next lines start with the molecule.

SMILES	IC50 [nM]
COc1ccc(CN2C[C@@H](C)[C@H](c3nc4c(cnn4C4CCCC4)c(=O)[nH]3)C2)c(F)c1 (racemic) [Example 129, 1-cyclopentyl-6-[(3,4-trans)-1-(2-fluoro-4-methoxybenzyl)-4-methylpyrrolidin-3-yl]-1,5-dihydro-4H-pyrazolo[3,4-d]pyrimidin-4-one]	71.8
Cc1ccc(CN2C[C@@H](C)[C@H](c3nc4c(cnn4C4CCCC4)c(=O)[nH]3)C2)cc1F (racemic) [Example 130, 1-cyclopentyl-6-[(3,4-trans)-1-(3-fluoro-4-methylbenzyl)-4-methylpyrrolidin-3-yl]-1,5-dihydro-4H-pyrazolo[3,4-d]pyrimidin-4-one]	60
Cc1ncc(CN2C[C@@H](C)[C@H](c3nc4c(cnn4C4CCCC4)c(=O)[nH]3)C2)s1 (racemic) [Example 131, 1-cyclopentyl-6-{(3,4-trans)-4-methyl-1-[(2-methyl-1,3-thiazol-5-yl)methyl]pyrrolidin-3-yl}-1,5-dihydro-4H-pyrazolo[3,4-d]pyrimidin-4-one]	41.9
CC(C)c1csc(CN2C[C@@H](C)[C@H](c3nc4c(cnn4C4CCCC4)c(=O)[nH]3)C2)n1 (racemic) [Example 132, 1-cyclopentyl-6-{(3,4-trans)-1-[(4-isopropyl-1,3-thiazol-2-yl)methyl]-4-methylpyrrolidin-3-yl}-1,5-dihydro-4H-pyrazolo[3,4-d]pyrimidin-4-one]	37.5
Cc1ccc(CN2C[C@@H](C)[C@H](c3nc4c(cnn4C4CCCC4)c(=O)[nH]3)C2)c(F)c1F (racemic) [Example 134, 1-cyclopentyl-6-[(3,4-trans)-1-(2,3-difluoro-4-methylbenzyl)-4-methylpyrrolidin-3-yl]-1,5-dihydro-4H-pyrazolo[3,4-d]pyrimidin-4-one]	93.5
C[C@@H]1CN(Cc2cccc(-n3cccn3)n2)C[C@H]1c1nc2c(cnn2C2CCCC2)c(=O)[nH]1 (racemic) [Example 135, 1-cyclopentyl-6-[(3,4-trans)-4-methyl-1-{[6-(1H-pyrazol-1-yl)pyridin-2-yl]methyl}pyrrolidin-3-yl]-1,5-dihydro-4H-pyrazolo[3,4-d]pyrimidin-4-one]	91.6
Cc1ccc(CN2C[C@@H](C)[C@H](c3nc4c(cnn4C4CCCC4)c(=O)[nH]3)C2)cc1 (racemic) [Example 136, 1-cyclopentyl-6-[(3,4-trans)-4-methyl-1-(4-methylbenzyl)pyrrolidin-3-yl]-1,5-dihydro-4H-pyrazolo[3,4-d]pyrimidin-4-one]	132
C[C@@H]1CN(Cc2ccc3ccccc3c2)C[C@H]1c1nc2c(cnn2C2CCCC2)c(=O)[nH]1 (racemic) [Example 137, 1-cyclopentyl-6-[(3,4-trans)-4-methyl-1-(2-naphthylmethyl)pyrrolidin-3-yl]-1,5-dihydro-4H-pyrazolo[3,4-d]pyrimidin-4-one]	54.5
C[C@@H]1CN(Cc2ccc(-n3cncn3)cc2)C[C@H]1c1nc2c(cnn2C2CCCC2)c(=O)[nH]1 (racemic) [Example 140, 1-cyclopentyl-6-{(3,4-trans)-4-methyl-1-[4-(1H-1,2,4-triazol-1-yl)benzyl]pyrrolidin-3-yl}-1,5-dihydro-4H-pyrazolo[3,4-d]pyrimidin-4-one]	26.8
COc1cc(CN2C[C@@H](C)[C@H](c3nc4c(cnn4C4CCCC4)c(=O)[nH]3)C2)ccc1C (racemic) [Example 141, 1-cyclopentyl-6-[(3,4-trans)-1-(3-methoxy-4-methylbenzyl)-4-methylpyrrolidin-3-yl]-1,5-dihydro-4H-pyrazolo[3,4-d]pyrimidin-4-one]	53.1
COc1ccc(OC)c(CN2C[C@@H](C)[C@H](c3nc4c(cnn4C4CCCC4)c(=O)[nH]3)C2)c1 (racemic) [Example 144, 1-cyclopentyl-6-[(3,4-trans)-1-(2,5-dimethoxybenzyl)-4-methylpyrrolidin-3-yl]-1,5-dihydro-4H-pyrazolo[3,4-d]pyrimidin-4-one]	99.6
Cc1cc(CN2C[C@@H](C)[C@H](c3nc4c(cnn4C4CCCC4)c(=O)[nH]3)C2)no1 (racemic) [Example 145, 1-cyclopentyl-6-{(3,4-trans)-4-methyl-1-[(5-methylisoxazol-3-yl)methyl]pyrrolidin-3-yl}-1,5-dihydro-4H-pyrazolo[3,4-d]pyrimidin-4-one]	77.4
COc1cccc(F)c1CN1C[C@@H](C)[C@H](c2nc3c(cnn3C3CCCC3)c(=O)[nH]2)C1 (racemic) [Example 146, 1-cyclopentyl-6-[(3,4-trans)-1-(2-fluoro-6-methoxybenzyl)-4-methylpyrrolidin-3-yl]-1,5-dihydro-4H-pyrazolo[3,4-d]pyrimidin-4-one]	165
COc1cc(CN2C[C@@H](C)[C@H](c3nc4c(cnn4C4CCCC4)c(=O)[nH]3)C2)ccc1F (racemic) [Example 148, 1-cyclopentyl-6-[(3,4-trans)-1-(4-fluoro-3-methoxybenzyl)-4-methylpyrrolidin-3-yl]-1,5-dihydro-4H-pyrazolo[3,4-d]pyrimidin-4-one]	36
COc1cc(CN2C[C@@H](C)[C@H](c3nc4c(cnn4C4CCCC4)c(=O)[nH]3)C2)cc(OC)c1 (racemic) [Example 152, 1-cyclopentyl-6-[(3,4-trans)-1-(3,5-dimethoxybenzyl)-4-methylpyrrolidin-3-yl]-1,5-dihydro-4H-pyrazolo[3,4-d]pyrimidin-4-one]	42.2
CCOc1cccc(CN2C[C@@H](C)[C@H](c3nc4c(cnn4C4CCCC4)c(=O)[nH]3)C2)c1 (racemic) [Example 153, 1-cyclopentyl-6-[(3,4-trans)-1-(3-ethoxybenzyl)-4-methylpyrrolidin-3-yl]-1,5-dihydro-4H-pyrazolo[3,4-d]pyrimidin-4-one]	54.4
C[C@@H]1CN(Cc2cccc(C#N)c2)C[C@H]1c1nc2c(cnn2C2CCCC2)c(=O)[nH]1 (racemic) [Example 155, 3-{[(3,4-trans)-3-(1-cyclopentyl-4-oxo-4,5-dihydro-1H-pyrazolo[3,4-d]pyrimidin-6-yl)-4-methylpyrrolidin-1-yl]methyl}benzonitrile]	27.9
C[C@@H]1CN(Cc2ccc(F)c(Cl)c2)C[C@H]1c1nc2c(cnn2C2CCCC2)c(=O)[nH]1 (racemic) [Example 158, 6-[(3,4-trans)-1-(3-chloro-4-fluorobenzyl)-4-methylpyrrolidin-3-yl]-1-cyclopentyl-1,5-dihydro-4H-pyrazolo[3,4-d]pyrimidin-4-one]	50.9
